Data: patent publication US20030092757A1, “Favorable modulation of health-related quality of life and health-related quality-adjusted time-to-progression of disease in patients with prostate cancer” (priority 2001, published 2003)

Tests used:
[1] = test system: patients having hormone refractory prostate cancer (HRPCa); experiment: Area under the Curve (AUC) analysis of health-related QoL domain scores, one year follow-up assumed; format: in vivo, human
From the text: The Kaplan-Meier product limit method may provide biased results if study data are obtained under certain conditions such as staggered entry of subjects into the study and/or incomplete follow-up (Biometrics. 1989; 5:781-795). Thus, a second analysis was implemented to verify that the conclusions derived from the Kaplan-Meier method would remain robust to the length of follow-up. The assumption was that all patients were followed for one year. Patients who discontinued from the study prior to one year of observation had their last observation for all health-related QoL domains carried forward through the remainder of the year. Similarly, patients who had not completed one year of observation had their health-related QoL data carried forward through one year. If the patient experienced a clinical event within the one year period, the last observation was not carried forward. The Area under the Curve (AUC) value for each domain was computed by multiplying the health-related QoL domain score by the respective duration of that score. Finally, AUC values were aggregated across all subjects within each respective treatment group (atrasentan (10 mg), atrasentan (2.5 mg), and placebo). Aggregated AUC values for each domain were compared for differences between treatment groups using a t-test.

[2] = test system: patients having hormone refractory prostate cancer (HRPCa); experiment: Time to disease or PSA progression across treatment groups; format: in vivo, human; conditions: intent-to-treat population
Description: Patients received treatment with 10 mg (N=89) or 2.5 mg (N=95) of atrasentan or placebo (N=104) until experiencing a clinical event indicative of disease progression such as palliative opiate treatment of new bone or visceral pain, palliative radiation treatment of new bone pain, or new tumor growth symptoms requiring intervention or treatment with chemotherapy.

SMILES: CCCCN(CCCC)C(=O)CN1C[C@H](c2ccc3c(c2)OCO3)[C@@H](C(=O)O)[C@@H]1c1ccc(OC)cc1 [atrasentan, (2R,3R,4S)-2-(4-methoxyphenyl)-4-(1,3-benzodioxol-5-yl)-1-(((N,N-dibutylamino)carbonyl)methyl)pyrrolidine-3-carboxylic acid]
- AUC results ([1]; 2.5 mg, except for dyspnea, social/family, functional well-being, and FACT-P domain scores): significantly improved
- AUC analysis, responses in the 10 mg and 2.5 mg treatment groups ([1]; 10 mg vs 2.5 mg): not statistically differentiable
- AUC analysis, atrasentan treatment vs placebo groups ([1]; Intent to Treat population): no statistical differences
- AUC analysis vs placebo ([1]; per-protocol population, every health-related QoL domain score): strong trends in favor
- AUC for the health-related QoL domain scores ([1]; physical functioning, social functioning, and pain, p<0.05): significantly longer
- differences in either the time to disease or PSA progression across treatment groups [2]: no statistically significant differences
